Assay results taken from patent US20170340636A1, “COMPOSITIONS AND METHODS FOR INHIBITION OF AUTOPHAGY” (Board of Regents, The University of Texas System, priority 2016, published 2017).
Entries after “also recorded” stand apart in the source; their conditions may differ.

Key:
TAOK2 = biological target: T1, TAOK2 (Rattus norvegicus, UniProt Q9JLS3); experiment: Differential scanning fluorimetry (DSF) binding assay against TAOK2; conditions: DSF melt temperature shift of TAOK2, 5 μM TAOK2, compound 1 μM
T1 construct: made in house
T1 sequence (Q9JLS3 1-320 limits assumed): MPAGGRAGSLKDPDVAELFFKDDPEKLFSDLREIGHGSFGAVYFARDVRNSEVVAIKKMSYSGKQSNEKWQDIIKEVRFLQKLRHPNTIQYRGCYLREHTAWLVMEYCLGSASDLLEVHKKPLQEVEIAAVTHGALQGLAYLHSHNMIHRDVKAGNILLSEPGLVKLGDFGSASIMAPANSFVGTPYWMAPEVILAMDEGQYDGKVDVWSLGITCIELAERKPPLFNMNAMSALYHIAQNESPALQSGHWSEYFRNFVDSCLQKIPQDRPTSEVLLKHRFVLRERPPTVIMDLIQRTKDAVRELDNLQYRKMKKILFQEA
Protocol: (§1) Differential scanning fluorimetry binding assays of selected compounds against TAOK2 were conducted to measure strength of compound binding. A solution of 5 μM TAOK2, 50 mM MgCl2, 50 mM HEPES pH 7.5, and 2.5x SyproOrange(Life Technologies) was made. Compound was added to a final concentration of 1 μM. 25 μl of the reaction solution was added to the wells of a Biorad Multiplate 96 wellclear PCR plate. The plate was covered with a Biorad Microseal ‘B’ seal. Plates were read in a Biorad CFX96 Real-Time PCR system. The temperature was increased from 4° C. to 80° C., with fluorescence measurements being taken every 0.5° C. in the 6-FAM Fluorescein channel. The fluorescence response to heat curve was fit to a binding isotherm in order to determine the inflection point, which was taken as the melt temperature (Tm).
The prevalence of multiple heterocycles in the compounds is reflective of the composition of the screen (described in Methods in Supplemental Material). These 13 compounds were purchased from Chembridge Inc. and ChemDiv Inc. for measurement of direct binding using Differential Scanning Fluorimetry (DSF). DSF measures protein melt temperature (Tm) with a lipophilic dye (SyproOrange). As the temperature of the solution is increased, measurements of dye fluorescence are taken. When the protein begins to denature, hydrophobic regions in the protein are exposed, and the dye is able to bind. This binding insulates the dye from the surrounding water, reducing quenching effects and allowing fluorescence. Binding of small molecules to protein has a stabilizing effect, and this is seen by an increase in melt temperature (Table 1). The ΔTm values ranged from 3.0 to −0.6° C. The three compounds with the highest positive shifts were SW034538, SW163112, and SW083688, with 3° C., 2.2° C., and 2° C. shifts, respectively.

U2OS GFP-LC3 cells = experiment: GFP-LC3 accumulation by flow cytometry (autophagic flux); format: cell-based, human; conditions: 50 μM, 24 hours
Protocol: FIG. 4A) U2OS cells stably expressing the GFP-LC3 fusion transgene were treated with the indicated compound at 50 μM concentration for 24 hours before GFP fluorescence was measured by flow cytometry. The median fluorescent value from 20,000 cells per condition was normalized to that of vehicle alone (DMSO) within a given experiment. The mean+SD of >2 independent experiments is shown. ****, p<0.0001; ***, p<0.001; **, p<0.01; ns, p>0.05 versus vehicle alone (DMSO) by unpaired t test. FIG. 4B) TAOK2 inhibitors induce accumulation of p62. U2OS GFP-LC3 cells were treated with the indicated compounds at 50 μM concentration, or DMSO alone, for 24 hours. Lysates were collected and analyzed by western blot using the indicated antibodies. XPB was used as a loading control.
U2OS GFP-LC3 cells were seeded in 6-well plates at 150,000 cells per well in Dulbecco's Modified Eagle Medium supplemented with 10% fetal bovine serum. Twenty-four hours after seeding, the indicated compounds were added to a final concentration of 50 μM, or an equivalent volume of vehicle alone (DMSO) was added. Twenty-four hours after compound addition, cells were rinsed with PBS (Phosphate-Buffered Saline) and analyzed by flow cytometry using a FACS Calibur (BD Biosciences) to measure media GFP fluorescence per cell.
It had previously been determined that TAOK2 is required for autophagic flux in cancer cells. siRNA targeting TAOK2 elicited an expression response similar to siRNA targeting known autophagy genes, such as ULK1, a protein kinase involved in mTOR and AMPK signaling, in the human colon cancer cell line HCT116. TAOK2 depletion also impaired autophagic flux in human osteosarcoma cell line U2OS engineered to stably express the autophagy marker 1A/1B-light chain 3 fused to GFP (GFP-LC3), a microtubule associated protein.
Degradation of the autophagy scaffold and LC3 binding protein p62 is a second marker of autophagic flux. p62 degradation was assayed by Western blotting (FIG. 4B).

45 off-target kinases = experiment: Specificity screen against 45 kinases (Eurofins Cerep); format: biochemical; conditions: inhibition higher than 50% considered significant
Protocol: Of the 13 inhibitors, 3 were tested for cross-reactivity against 45 off-target kinases.
(§2) The difference between the TAOK2 ΔTm and that of p38 and ASK1 was determined. […] The majority of the other compounds were also preferentially inhibitory toward TAOK2. Of the 13 compounds, SW034538, SW172006 and SW083688 were cross-verified for selectivity by performing a specificity screen against 45 kinases commercially at Eurofins Cerep, Inc. (FIG. 3).

p38 and ASK1 = experiment: DSF selectivity for TAOK2 over small panel of other MAPK cascade members; format: binding; conditions: versus p38 and ASK1
Protocol: as §1, §2

Question: With `CS(=O)(=O)c1ccc2nc(NC(=O)CCCOc3ccc(Cl)cc3)sc2c1` [SW172006] as the compound, how does the ΔTm at 1 µM (TAOK2) read?
Answer: Its ΔTm at 1 µM is 1.3 °C.

Question: What about the “impairment of autophagic flux (accumulation of GFP-LC3)” value (“impairment of autophagic flux” below) (U2OS GFP-LC3 cells) of the same compound?
Answer: Its value is “effective”.

Question: What about the “specificity toward TAOK2 in screen against 45 kinases” value (“specificity toward TAOK2 in screen” for short) (45 off-target kinases) of the same compound?
Answer: The value was “highly specific toward TAOK2”.

Question: And the “selectivity for TAOK2 according to DSF” value (p38 and ASK1)?
Answer: Its value is “selective”.

Question: How did the ΔTm at 1 µM (TAOK2) turn out when `CCOCCCn1c(=S)[nH]c2cc(C(=O)NCC3COc4ccccc4O3)ccc2c1=O` (stereo not drawn) [SW083688] was run?
Answer: Its ΔTm at 1 µM is 2 °C.

Question: And the “impairment of autophagic flux” value (U2OS GFP-LC3 cells)?
Answer: The value was “effective”.

Question: What about the “specificity toward TAOK2 in screen” value (45 off-target kinases) of the same compound?
Answer: Its value is “highly specific toward TAOK2”.

Question: And the “selectivity for TAOK2 according to DSF” value (p38 and ASK1)?
Answer: Its value is “selective”.

Question: Which ΔTm at 1 µM (TAOK2) does the source give for `CCC(=O)Nc1nc(C)c(-c2csc(Nc3cc(OC)ccc3OC)n2)s1` [SW034538] here?
Answer: The ΔTm at 1 µM was 3 °C.

Question: What about the “impairment of autophagic flux” value (U2OS GFP-LC3 cells) of the same compound?
Answer: The value was “showing inhibition; also recorded: effective”.

Question: And the “specificity toward TAOK2 in screen” value (45 off-target kinases)?
Answer: The value was “cross-reactivity with respect to six of the 45 kinases”.

Question: And the “selectivity for TAOK2 according to DSF” value (p38 and ASK1)?
Answer: The value was “selective”.
